Data taken from the kinase profiling compilation of Christmann-Franck et al. (2016).

What was measured:
Experiment in all cases: KINOMEscan competition binding
Settings in all cases: compound 0.5 µM
RPS6KA6 KD1 (human) = RPS6KA6 KD1 (human) (UniProt Q9UK32)
LTK (human) = LTK (human) (UniProt P29376)
PLK4 (human) = PLK4 (human) (UniProt O00444)
FGFR2 (human) = FGFR2 (human) (UniProt P21802)
MAPK14 (human) = MAPK14 (human) (UniProt Q16539)
MAPK9 (human) = MAPK9 (human) (UniProt P45984)
MAPKAPK2 (human) = MAPKAPK2 (human) (UniProt P49137)
[1] = target: JAK2 JH1 catalytic (human) (UniProt O60674)
[2] = test system: EIF2AK4 KD2 (human), Q9P2K8 [S808G]
Chain of EIF2AK4 KD2 (human), Q9P2K8 [S808G] (Q9P2K8 whole entry S808G, looked up): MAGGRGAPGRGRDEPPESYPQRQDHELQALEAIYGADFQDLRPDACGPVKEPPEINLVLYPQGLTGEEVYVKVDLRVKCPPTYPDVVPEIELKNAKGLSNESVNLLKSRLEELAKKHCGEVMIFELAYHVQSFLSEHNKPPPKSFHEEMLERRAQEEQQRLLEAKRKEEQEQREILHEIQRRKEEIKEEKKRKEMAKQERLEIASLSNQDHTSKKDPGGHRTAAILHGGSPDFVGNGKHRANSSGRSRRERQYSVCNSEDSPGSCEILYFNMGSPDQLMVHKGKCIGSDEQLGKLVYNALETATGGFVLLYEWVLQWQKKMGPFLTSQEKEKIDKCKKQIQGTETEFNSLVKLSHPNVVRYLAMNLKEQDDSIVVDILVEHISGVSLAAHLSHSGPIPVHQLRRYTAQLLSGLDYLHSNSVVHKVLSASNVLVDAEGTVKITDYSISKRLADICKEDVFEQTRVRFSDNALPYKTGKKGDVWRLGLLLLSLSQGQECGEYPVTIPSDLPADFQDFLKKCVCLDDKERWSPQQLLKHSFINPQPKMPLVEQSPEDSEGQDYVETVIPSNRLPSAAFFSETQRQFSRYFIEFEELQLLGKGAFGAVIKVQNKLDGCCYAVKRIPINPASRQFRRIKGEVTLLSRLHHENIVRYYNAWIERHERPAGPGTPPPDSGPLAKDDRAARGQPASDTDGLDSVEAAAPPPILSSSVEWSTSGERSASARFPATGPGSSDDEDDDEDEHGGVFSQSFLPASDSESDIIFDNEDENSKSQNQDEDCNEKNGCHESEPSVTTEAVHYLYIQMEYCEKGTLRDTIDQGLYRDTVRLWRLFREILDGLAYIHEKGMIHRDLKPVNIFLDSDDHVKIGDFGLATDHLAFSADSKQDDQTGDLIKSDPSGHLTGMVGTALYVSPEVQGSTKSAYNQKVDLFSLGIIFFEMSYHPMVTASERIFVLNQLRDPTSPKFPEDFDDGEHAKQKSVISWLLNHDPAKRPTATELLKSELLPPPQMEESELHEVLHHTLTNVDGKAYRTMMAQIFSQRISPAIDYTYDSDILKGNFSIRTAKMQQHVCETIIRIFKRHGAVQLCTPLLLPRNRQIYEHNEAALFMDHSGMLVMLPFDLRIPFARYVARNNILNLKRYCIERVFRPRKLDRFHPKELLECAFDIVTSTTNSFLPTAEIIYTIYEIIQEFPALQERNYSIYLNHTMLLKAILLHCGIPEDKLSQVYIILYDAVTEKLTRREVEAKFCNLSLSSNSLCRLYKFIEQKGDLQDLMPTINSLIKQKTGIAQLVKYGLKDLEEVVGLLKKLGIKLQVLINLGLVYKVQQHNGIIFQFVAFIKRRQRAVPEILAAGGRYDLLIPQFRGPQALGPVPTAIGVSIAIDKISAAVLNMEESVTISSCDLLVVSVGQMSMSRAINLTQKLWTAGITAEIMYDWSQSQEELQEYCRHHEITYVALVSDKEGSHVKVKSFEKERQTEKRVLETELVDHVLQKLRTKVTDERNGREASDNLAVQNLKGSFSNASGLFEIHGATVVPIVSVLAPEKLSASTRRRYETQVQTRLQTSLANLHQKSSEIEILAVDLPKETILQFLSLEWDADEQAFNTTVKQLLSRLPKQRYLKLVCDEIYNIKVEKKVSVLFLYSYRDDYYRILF

EPHB3 (human) = EPHB3 (human) (UniProt P54753)
[3] = test system: PIK3CA (human), P42336 [C420R]
HIPK3 (human) = HIPK3 (human) (UniProt Q9H422)
MAP3K9 (human) = MAP3K9 (human) (UniProt P80192)
STK17A (human) = STK17A (human) (UniProt Q9UEE5)
PIK3C2G (human) = PIK3C2G (human) (UniProt O75747)
PAK7 (human) = PAK7 (human) (UniProt Q9P286)
EPHA5 (human) = EPHA5 (human) (UniProt P54756)
[4] = test system: LRRK2 (human), Q5S007 [G2019S]
PTK6 (human) = PTK6 (human) (UniProt Q13882)
EIF2AK2 (human) = EIF2AK2 (human) (UniProt P19525)
Chain of EIF2AK2 (human) (P19525 whole entry, looked up): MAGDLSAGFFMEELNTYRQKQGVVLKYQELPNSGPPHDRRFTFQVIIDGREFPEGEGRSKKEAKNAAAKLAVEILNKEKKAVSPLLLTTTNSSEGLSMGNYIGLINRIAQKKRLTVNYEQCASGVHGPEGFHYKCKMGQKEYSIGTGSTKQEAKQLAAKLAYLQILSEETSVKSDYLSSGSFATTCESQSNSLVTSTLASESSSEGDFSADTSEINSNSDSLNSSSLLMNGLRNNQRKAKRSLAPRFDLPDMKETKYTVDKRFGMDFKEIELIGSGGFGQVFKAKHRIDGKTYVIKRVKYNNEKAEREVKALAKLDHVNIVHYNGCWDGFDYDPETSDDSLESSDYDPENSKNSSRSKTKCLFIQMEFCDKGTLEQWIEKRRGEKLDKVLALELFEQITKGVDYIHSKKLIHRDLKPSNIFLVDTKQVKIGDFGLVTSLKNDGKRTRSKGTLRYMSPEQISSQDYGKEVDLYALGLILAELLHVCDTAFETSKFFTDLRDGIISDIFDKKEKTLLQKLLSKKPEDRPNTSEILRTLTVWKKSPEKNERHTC

STK38L (human) = STK38L (human) (UniProt Q9Y2H1)
Chain of STK38L (human) (Q9Y2H1 whole entry, looked up): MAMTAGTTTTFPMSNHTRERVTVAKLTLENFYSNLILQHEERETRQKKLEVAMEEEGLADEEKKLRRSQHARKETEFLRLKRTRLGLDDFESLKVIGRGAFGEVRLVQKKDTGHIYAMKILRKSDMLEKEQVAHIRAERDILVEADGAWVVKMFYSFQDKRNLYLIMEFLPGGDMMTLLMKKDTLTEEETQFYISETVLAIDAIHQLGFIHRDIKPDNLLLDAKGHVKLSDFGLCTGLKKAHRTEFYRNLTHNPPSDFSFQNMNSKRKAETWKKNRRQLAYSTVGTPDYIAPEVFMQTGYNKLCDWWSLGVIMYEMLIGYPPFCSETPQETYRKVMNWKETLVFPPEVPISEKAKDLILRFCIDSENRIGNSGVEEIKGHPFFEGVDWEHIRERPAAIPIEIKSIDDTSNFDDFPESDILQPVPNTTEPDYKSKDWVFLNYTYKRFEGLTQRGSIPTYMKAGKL

MERTK (human) = MERTK (human) (UniProt Q12866)
Chain of MERTK (human) (Q12866 whole entry, looked up): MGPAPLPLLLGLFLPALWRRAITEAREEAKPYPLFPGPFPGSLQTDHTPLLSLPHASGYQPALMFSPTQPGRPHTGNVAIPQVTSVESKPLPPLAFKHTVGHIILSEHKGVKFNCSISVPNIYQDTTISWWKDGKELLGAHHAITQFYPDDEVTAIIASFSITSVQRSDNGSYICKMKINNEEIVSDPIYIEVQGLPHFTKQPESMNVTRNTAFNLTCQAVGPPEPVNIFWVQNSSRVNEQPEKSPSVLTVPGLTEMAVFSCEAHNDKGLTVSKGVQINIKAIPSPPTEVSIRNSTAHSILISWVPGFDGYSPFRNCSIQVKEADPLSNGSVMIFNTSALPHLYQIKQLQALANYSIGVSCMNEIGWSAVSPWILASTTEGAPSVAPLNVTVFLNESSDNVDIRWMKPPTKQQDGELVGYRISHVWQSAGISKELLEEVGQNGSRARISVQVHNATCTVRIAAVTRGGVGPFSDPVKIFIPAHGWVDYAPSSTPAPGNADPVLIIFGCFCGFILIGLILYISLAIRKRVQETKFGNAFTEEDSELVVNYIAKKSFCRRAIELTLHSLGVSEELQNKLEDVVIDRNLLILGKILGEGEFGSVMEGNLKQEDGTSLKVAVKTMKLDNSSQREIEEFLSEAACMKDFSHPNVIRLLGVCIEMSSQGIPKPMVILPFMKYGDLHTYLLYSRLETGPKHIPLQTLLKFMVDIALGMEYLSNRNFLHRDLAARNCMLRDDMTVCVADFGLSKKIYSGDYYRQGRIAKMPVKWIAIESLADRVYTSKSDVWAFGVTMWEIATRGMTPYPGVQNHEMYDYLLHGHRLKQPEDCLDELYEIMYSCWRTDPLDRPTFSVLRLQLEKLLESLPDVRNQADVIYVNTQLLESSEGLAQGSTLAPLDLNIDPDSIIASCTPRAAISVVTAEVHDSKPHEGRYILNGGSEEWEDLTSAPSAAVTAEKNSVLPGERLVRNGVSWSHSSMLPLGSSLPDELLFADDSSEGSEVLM

[5] = test system: MET (human), P08581 [Y1235D]
FER (human) = FER (human) (UniProt P16591)
PIP5K1A (human) = PIP5K1A (human) (UniProt Q99755)
ERBB3 (human) = ERBB3 (human) (UniProt P21860)
MAPK3 (human) = MAPK3 (human) (UniProt P27361)
PIK3CD (human) = PIK3CD (human) (UniProt O00329)
IKBKE (human) = IKBKE (human) (UniProt Q14164)
MAP4K3 (human) = MAP4K3 (human) (UniProt Q8IVH8)
CHUK (human) = CHUK (human) (UniProt O15111)
DYRK1B (human) = DYRK1B (human) (UniProt Q9Y463)
IGF1R (human) = IGF1R (human) (UniProt P08069)
FGFR4 (human) = FGFR4 (human) (UniProt P22455)
MAP3K13 (human) = MAP3K13 (human) (UniProt O43283)
Chain of MAP3K13 (human) (O43283 whole entry, looked up): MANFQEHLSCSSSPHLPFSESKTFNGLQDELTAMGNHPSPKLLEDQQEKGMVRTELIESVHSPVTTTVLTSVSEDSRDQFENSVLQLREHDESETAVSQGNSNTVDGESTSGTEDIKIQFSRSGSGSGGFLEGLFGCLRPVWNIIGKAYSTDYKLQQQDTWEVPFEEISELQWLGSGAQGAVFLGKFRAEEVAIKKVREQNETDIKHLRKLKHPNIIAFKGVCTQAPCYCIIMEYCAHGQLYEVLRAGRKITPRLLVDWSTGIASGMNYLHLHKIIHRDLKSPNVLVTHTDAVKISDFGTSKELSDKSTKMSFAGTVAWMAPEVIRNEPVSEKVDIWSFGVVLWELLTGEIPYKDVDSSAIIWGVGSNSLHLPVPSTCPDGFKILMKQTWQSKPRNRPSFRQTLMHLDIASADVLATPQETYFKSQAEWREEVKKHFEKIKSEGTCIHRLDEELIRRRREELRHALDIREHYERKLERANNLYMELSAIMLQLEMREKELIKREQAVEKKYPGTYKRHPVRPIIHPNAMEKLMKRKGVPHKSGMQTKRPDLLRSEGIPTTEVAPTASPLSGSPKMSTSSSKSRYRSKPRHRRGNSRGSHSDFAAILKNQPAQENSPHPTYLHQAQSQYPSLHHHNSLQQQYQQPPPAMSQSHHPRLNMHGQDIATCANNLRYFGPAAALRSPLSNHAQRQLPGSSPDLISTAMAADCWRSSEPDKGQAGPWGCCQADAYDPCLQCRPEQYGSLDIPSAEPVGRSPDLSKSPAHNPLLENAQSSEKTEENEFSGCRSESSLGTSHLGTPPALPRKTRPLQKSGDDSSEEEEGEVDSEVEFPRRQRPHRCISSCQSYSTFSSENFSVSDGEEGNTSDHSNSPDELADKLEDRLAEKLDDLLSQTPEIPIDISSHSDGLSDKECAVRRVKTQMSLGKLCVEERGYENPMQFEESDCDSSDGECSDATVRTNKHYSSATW

ROCK2 (human) = ROCK2 (human) (UniProt O75116)
SRC (human) = SRC (human) (UniProt P12931)
SNRK (human) = SNRK (human) (UniProt Q9NRH2)
MAP3K3 (human) = MAP3K3 (human) (UniProt Q99759)
ROCK1 (human) = ROCK1 (human) (UniProt Q13464)
EPHA4 (human) = EPHA4 (human) (UniProt P54764)

Chain of MAPK9 (human) (P45984 whole entry, looked up): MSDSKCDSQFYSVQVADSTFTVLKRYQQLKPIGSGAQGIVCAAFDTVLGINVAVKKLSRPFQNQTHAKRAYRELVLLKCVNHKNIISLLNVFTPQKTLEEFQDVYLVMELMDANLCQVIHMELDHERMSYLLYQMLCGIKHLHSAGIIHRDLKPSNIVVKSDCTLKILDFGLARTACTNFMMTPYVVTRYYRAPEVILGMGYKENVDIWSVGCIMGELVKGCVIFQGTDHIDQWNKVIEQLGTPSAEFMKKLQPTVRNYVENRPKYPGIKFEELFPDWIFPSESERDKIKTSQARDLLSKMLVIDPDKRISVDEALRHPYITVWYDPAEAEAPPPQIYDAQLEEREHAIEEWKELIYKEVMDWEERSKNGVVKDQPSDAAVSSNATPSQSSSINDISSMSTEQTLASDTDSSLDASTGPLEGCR

**Q.** With `Cn1c2ccccc2c2c3c(c4c5ccccc5n(CCC#N)c4c21)CNC3=O` as the compound, how does the kinase still bound, per cent of control (RPS6KA6 KD1 (human)) read?
**A.** 4.7%

**Q.** What about the kinase still bound, per cent of control (LTK (human)) of the same compound?
**A.** 4.2%

**Q.** And the kinase still bound, per cent of control (PLK4 (human))?
**A.** 6.5%

**Q.** And the kinase still bound, per cent of control (FGFR2 (human))?
**A.** 95%

**Q.** What about the kinase still bound, per cent of control (MAPK14 (human)) of the same compound?
**A.** 95%

**Q.** And the kinase still bound, per cent of control (MAPK9 (human))?
**A.** 46%

**Q.** What about the kinase still bound, per cent of control (MAPKAPK2 (human)) of the same compound?
**A.** 100%

**Q.** What about the kinase still bound, per cent of control [1] of the same compound?
**A.** 0.2%

**Q.** What about the kinase still bound, per cent of control [2] of the same compound?
**A.** 77%

**Q.** And the kinase still bound, per cent of control (EPHB3 (human))?
**A.** 85%

**Q.** What about the kinase still bound, per cent of control [3] of the same compound?
**A.** 46%

**Q.** And the kinase still bound, per cent of control (HIPK3 (human))?
**A.** 12%

**Q.** And the kinase still bound, per cent of control (MAP3K9 (human))?
**A.** 0.65%

**Q.** And the kinase still bound, per cent of control (STK17A (human))?
**A.** 71%

**Q.** What about the kinase still bound, per cent of control (PIK3C2G (human)) of the same compound?
**A.** 70%

**Q.** What about the kinase still bound, per cent of control (PAK7 (human)) of the same compound?
**A.** 3.4%

**Q.** And the kinase still bound, per cent of control (EPHA5 (human))?
**A.** 96%

**Q.** And the kinase still bound, per cent of control [4]?
**A.** 9.4%

**Q.** And the kinase still bound, per cent of control (PTK6 (human))?
**A.** 77%

**Q.** What about the kinase still bound, per cent of control (EIF2AK2 (human)) of the same compound?
**A.** 89%

**Q.** And the kinase still bound, per cent of control (STK38L (human))?
**A.** 66%

**Q.** What about the kinase still bound, per cent of control (MERTK (human)) of the same compound?
**A.** 89%

**Q.** What about the kinase still bound, per cent of control [5] of the same compound?
**A.** 80%

**Q.** And the kinase still bound, per cent of control (FER (human))?
**A.** 3.2%

**Q.** And the kinase still bound, per cent of control (PIP5K1A (human))?
**A.** 1.6%

**Q.** And the kinase still bound, per cent of control (ERBB3 (human))?
**A.** 94%

**Q.** And the kinase still bound, per cent of control (MAPK3 (human))?
**A.** 96%

**Q.** And the kinase still bound, per cent of control (PIK3CD (human))?
**A.** 45%

**Q.** And the kinase still bound, per cent of control (IKBKE (human))?
**A.** 99%

**Q.** And the kinase still bound, per cent of control (MAP4K3 (human))?
**A.** 6%

**Q.** And the kinase still bound, per cent of control (CHUK (human))?
**A.** 88%

**Q.** And the kinase still bound, per cent of control (DYRK1B (human))?
**A.** 12%

**Q.** What about the kinase still bound, per cent of control (IGF1R (human)) of the same compound?
**A.** 85%

**Q.** And the kinase still bound, per cent of control (FGFR4 (human))?
**A.** 100%

**Q.** What about the kinase still bound, per cent of control (MAP3K13 (human)) of the same compound?
**A.** 33%

**Q.** And the kinase still bound, per cent of control (ROCK2 (human))?
**A.** 18%

**Q.** And the kinase still bound, per cent of control (SRC (human))?
**A.** 100%

**Q.** And the kinase still bound, per cent of control (SNRK (human))?
**A.** 69%

**Q.** What about the kinase still bound, per cent of control (MAP3K3 (human)) of the same compound?
**A.** 2.1%

**Q.** And the kinase still bound, per cent of control (ROCK1 (human))?
**A.** 22%

**Q.** What about the kinase still bound, per cent of control (EPHA4 (human)) of the same compound?
**A.** 97%
